Reference: PubChem BioAssay (NCI)
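Compound exposure: 48 hours, 5 concentrations, 96-well plates. GI50 is the concentration that inhibits growth by half. TGI: total growth inhibition.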

Key:
Assay in all cases: growth of human tumour cells (NCI), 48 h
SF-295 CNS = tested on: SF-295 CNS
MOLT-4 leukemia = tested on: MOLT-4 leukemia
U251 CNS = tested on: U251 CNS
HOP-92 NSCLC = tested on: HOP-92 NSCLC
HCT-15 colon = tested on: HCT-15 colon
SW-620 colon = tested on: SW-620 colon
SK-MEL-2 melanoma = tested on: SK-MEL-2 melanoma
OVCAR-3 ovarian = tested on: OVCAR-3 ovarian
HT29 colon = tested on: HT29 colon
A498 renal = tested on: A498 renal

Q: Which GI50 (SF-295 CNS) does the source give for `N#Cc1c(-c2cccs2)c2c(=S)[nH]c(=S)[nH]c2[nH]c1=S` here?
A: Its GI50 is 46.5 µM.

Q: And the TGI (SF-295 CNS)?
A: Its TGI is > 100 µM.

Q: What about the GI50 (MOLT-4 leukemia) of the same compound?
A: Its GI50 is 14.3 µM.

Q: What about the TGI (MOLT-4 leukemia) of the same compound?
A: The TGI was 42.7 µM.

Q: What about the GI50 (U251 CNS) of the same compound?
A: Its GI50 is 30.2 µM.

Q: And the TGI (U251 CNS)?
A: The TGI was > 100 µM.

Q: What about the GI50 (HOP-92 NSCLC) of the same compound?
A: The GI50 was 89.4 µM.

Q: What about the TGI (HOP-92 NSCLC) of the same compound?
A: The TGI was > 100 µM.

Q: And the GI50 (HCT-15 colon)?
A: The GI50 was 37 µM.

Q: And the TGI (HCT-15 colon)?
A: Its TGI is > 100 µM.

Q: And the GI50 (SW-620 colon)?
A: The GI50 was 32.8 µM.

Q: And the TGI (SW-620 colon)?
A: Its TGI is 81 µM.

Q: And the GI50 (SK-MEL-2 melanoma)?
A: The GI50 was 32.9 µM.

Q: And the TGI (SK-MEL-2 melanoma)?
A: Its TGI is 80.9 µM.

Q: And the GI50 (OVCAR-3 ovarian)?
A: Its GI50 is 34.5 µM.

Q: What about the TGI (OVCAR-3 ovarian) of the same compound?
A: Its TGI is 98.8 µM.

Q: What does the source list for `COc1cc2c(c3c1C=CCO3)C(=O)c1ccccc1C2=O`?
A: TGI (SF-295 CNS): > 100 µM; TGI (MOLT-4 leukemia): 79.2 µM; TGI (U251 CNS): > 100 µM; TGI (HOP-92 NSCLC): > 100 µM; TGI (HT29 colon): > 100 µM; TGI (HCT-15 colon): > 100 µM; TGI (SW-620 colon): 97.9 µM; TGI (SK-MEL-2 melanoma): > 100 µM; TGI (OVCAR-3 ovarian): > 100 µM

Q: Which GI50 (SF-295 CNS) does the source give for `C=C1C(O)C2CCC(C)(C)C(=O)C2=C(CC(C)C)C12CC2` (stereo not drawn) here?
A: Its GI50 is 36.6 µM.

Q: And the TGI (SF-295 CNS)?
A: The TGI was > 100 µM.

Q: What about the GI50 (MOLT-4 leukemia) of the same compound?
A: The GI50 was 33.1 µM.

Q: What about the TGI (MOLT-4 leukemia) of the same compound?
A: The TGI was > 100 µM.

Q: And the GI50 (U251 CNS)?
A: The GI50 was 43.4 µM.

Q: And the TGI (U251 CNS)?
A: Its TGI is > 100 µM.

Q: What about the GI50 (HOP-92 NSCLC) of the same compound?
A: The GI50 was 15 µM.

Q: What about the TGI (HOP-92 NSCLC) of the same compound?
A: The TGI was 70.3 µM.

Q: And the GI50 (HT29 colon)?
A: The GI50 was 76.6 µM.

Q: What about the TGI (HT29 colon) of the same compound?
A: The TGI was > 100 µM.

Q: What about the GI50 (HCT-15 colon) of the same compound?
A: The GI50 was 54.4 µM.

Q: And the TGI (HCT-15 colon)?
A: The TGI was > 100 µM.

Q: What about the GI50 (SW-620 colon) of the same compound?
A: Its GI50 is 42 µM.

Q: What about the TGI (SW-620 colon) of the same compound?
A: The TGI was > 100 µM.

Q: And the GI50 (SK-MEL-2 melanoma)?
A: Its GI50 is > 100 µM.

Q: And the TGI (SK-MEL-2 melanoma)?
A: The TGI was > 100 µM.

Q: And the GI50 (OVCAR-3 ovarian)?
A: Its GI50 is 34.7 µM.

Q: What about the TGI (OVCAR-3 ovarian) of the same compound?
A: Its TGI is > 100 µM.

Q: For `FC(F)(F)c1nc(-c2ccccc2Cl)[nH]c1C(F)(F)F`, which TGI (SF-295 CNS) is on record?
A: The TGI was 2.03 µM.

Q: And the TGI (MOLT-4 leukemia)?
A: Its TGI is > 29.5 µM.

Q: And the TGI (U251 CNS)?
A: The TGI was 3.08 µM.

Q: What about the TGI (HOP-92 NSCLC) of the same compound?
A: Its TGI is 1.22 µM.

Q: What about the TGI (HT29 colon) of the same compound?
A: The TGI was 4.22 µM.

Q: And the TGI (HCT-15 colon)?
A: The TGI was 3.52 µM.

Q: What about the TGI (SW-620 colon) of the same compound?
A: The TGI was 6.63 µM.

Q: And the TGI (SK-MEL-2 melanoma)?
A: The TGI was 1.4 µM.

Q: What about the TGI (OVCAR-3 ovarian) of the same compound?
A: Its TGI is 3.68 µM.

Q: Which results are given for `CNC(=O)c1ccccc1CC1(O)c2ccccc2Oc2ccccc21`?
A: GI50 (SF-295 CNS): 20.7 µM; TGI (SF-295 CNS): > 100 µM; GI50 (MOLT-4 leukemia): 36.4 µM; TGI (MOLT-4 leukemia): > 100 µM; GI50 (U251 CNS): 19.6 µM; TGI (U251 CNS): 59.6 µM; GI50 (HOP-92 NSCLC): 7.52 µM; TGI (HOP-92 NSCLC): 44.4 µM; GI50 (HT29 colon): 9.73 µM; TGI (HT29 colon): 51.1 µM; GI50 (HCT-15 colon): 12.7 µM; TGI (HCT-15 colon): > 100 µM; GI50 (SW-620 colon): 14 µM; TGI (SW-620 colon): > 100 µM; GI50 (A498 renal): 4.54 µM; TGI (A498 renal): 37.5 µM; GI50 (SK-MEL-2 melanoma): 14.2 µM; TGI (SK-MEL-2 melanoma): 34.5 µM

Q: What does the source list for `COc1ccc(/C=C/C=C(/C#N)C(N)=S)cc1`?
A: GI50 (SF-295 CNS): 31 µM; TGI (SF-295 CNS): > 100 µM; GI50 (U251 CNS): 28.5 µM; TGI (U251 CNS): > 100 µM; GI50 (HT29 colon): 26 µM; TGI (HT29 colon): > 100 µM; GI50 (HCT-15 colon): 25.4 µM; TGI (HCT-15 colon): 82.8 µM; GI50 (SW-620 colon): 21.3 µM; TGI (SW-620 colon): 61.2 µM; GI50 (A498 renal): 25.1 µM; TGI (A498 renal): 56.5 µM; GI50 (SK-MEL-2 melanoma): 25.2 µM; TGI (SK-MEL-2 melanoma): 67.7 µM; GI50 (OVCAR-3 ovarian): 15.5 µM; TGI (OVCAR-3 ovarian): 42.7 µM

Q: How did the TGI (SF-295 CNS) turn out when `Cc1cc2c(cc1C)[n+](=O)c(C(=O)C/C(=N/NC(=O)c1ccccc1O)C(=O)Nc1ccccc1C(C)C)c(C)n2[O-]` was run?
A: The TGI was > 100 µM.

Q: And the TGI (MOLT-4 leukemia)?
A: The TGI was 77.1 µM.

Q: What about the TGI (U251 CNS) of the same compound?
A: Its TGI is > 100 µM.

Q: What about the TGI (HT29 colon) of the same compound?
A: Its TGI is > 100 µM.

Q: What about the TGI (HCT-15 colon) of the same compound?
A: Its TGI is > 100 µM.

Q: What about the TGI (SW-620 colon) of the same compound?
A: The TGI was > 100 µM.

Q: What about the TGI (A498 renal) of the same compound?
A: The TGI was > 100 µM.

Q: And the TGI (SK-MEL-2 melanoma)?
A: Its TGI is > 100 µM.

Q: And the TGI (OVCAR-3 ovarian)?
A: The TGI was > 100 µM.

Q: For `O=C1/C(=C/c2ccc(F)cc2)CCOc2ccc([N+](=O)[O-])cc21`, which GI50 (SF-295 CNS) is on record?
A: The GI50 was 3.08 µM.

Q: And the TGI (SF-295 CNS)?
A: Its TGI is 9.23 µM.

Q: And the GI50 (MOLT-4 leukemia)?
A: Its GI50 is 2.49 µM.

Q: And the TGI (MOLT-4 leukemia)?
A: The TGI was 6.02 µM.

Q: And the GI50 (U251 CNS)?
A: The GI50 was 40.1 µM.

Q: And the TGI (U251 CNS)?
A: Its TGI is > 100 µM.

Q: What about the GI50 (HOP-92 NSCLC) of the same compound?
A: Its GI50 is 4.45 µM.

Q: What about the TGI (HOP-92 NSCLC) of the same compound?
A: The TGI was 40.2 µM.

Q: And the GI50 (HCT-15 colon)?
A: Its GI50 is 41.6 µM.

Q: And the TGI (HCT-15 colon)?
A: Its TGI is > 100 µM.

Q: And the GI50 (SW-620 colon)?
A: The GI50 was 1.35 µM.

Q: And the TGI (SW-620 colon)?
A: Its TGI is 4.04 µM.

Q: And the GI50 (A498 renal)?
A: The GI50 was 17.4 µM.

Q: What about the TGI (A498 renal) of the same compound?
A: The TGI was 35 µM.

Q: And the GI50 (SK-MEL-2 melanoma)?
A: Its GI50 is 3.17 µM.

Q: And the TGI (SK-MEL-2 melanoma)?
A: Its TGI is 11.6 µM.

Q: What about the GI50 (OVCAR-3 ovarian) of the same compound?
A: Its GI50 is 2.33 µM.

Q: What about the TGI (OVCAR-3 ovarian) of the same compound?
A: Its TGI is 5.61 µM.
